# pIC50: −log10 of the molar value.
# Target: T1, GLUT1 (Homo sapiens, UniProt P11166)
# T1 sequence (P11166 1-492): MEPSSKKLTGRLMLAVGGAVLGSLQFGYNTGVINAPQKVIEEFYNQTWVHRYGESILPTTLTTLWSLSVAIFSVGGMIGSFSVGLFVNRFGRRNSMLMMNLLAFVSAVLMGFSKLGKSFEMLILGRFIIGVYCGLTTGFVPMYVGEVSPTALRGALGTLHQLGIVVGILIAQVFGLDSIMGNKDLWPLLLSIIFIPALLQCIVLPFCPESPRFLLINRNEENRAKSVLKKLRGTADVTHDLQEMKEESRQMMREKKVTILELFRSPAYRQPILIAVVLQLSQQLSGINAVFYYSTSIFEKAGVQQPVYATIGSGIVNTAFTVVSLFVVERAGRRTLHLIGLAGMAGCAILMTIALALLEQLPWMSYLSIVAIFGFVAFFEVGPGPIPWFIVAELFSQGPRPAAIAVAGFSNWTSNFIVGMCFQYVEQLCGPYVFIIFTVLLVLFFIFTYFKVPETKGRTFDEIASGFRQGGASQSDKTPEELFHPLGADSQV
# Assay: Indirect measurement of GLUT1 activity by quantification of intracellular ATP levels (glucose induced ATP increase)
# Type: cell-based
# Design: endogenous in cells; host or cells: DLD1 or CHO-K1
# Conditions: read-out: IC50 regarding glucose induced ATP increase (GLUT1 inhibition)
# In short: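 DLD1 or CHO-K1 cells were starved overnight in glucose-free medium with 1% FCS, then combined with an oxidative phosphorylation inhibitor. GLUT1 activity was read as glucose-induced ATP increase, GLUT2 as fructose-induced. Intracellular ATP was quantified by CellTiter-Glo luminescence.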
row,SMILES,pIC50
1,Cc1nn(Cc2ncco2)c(C)c1NC(=O)c1cc(C(N)=O)nc2ccccc12 [Example 1504],7.37
2,Cc1cc(Cn2nc(C)c(NC(=O)c3cc(C(F)(F)F)nc4ccc(Br)cc34)c2C)no1 [Example 1505],6.49
3,Cc1nn(Cc2ncco2)c(C)c1NC(=O)c1cc(C(F)(F)F)nc2ccc(Br)cc12 [Example 1506],7.45
4,COCc1noc(Cn2nc(C)c(NC(=O)c3cc(C(F)(F)F)nc4ccc(Br)cc34)c2C)n1 [Example 1507],6.15
5,COCc1noc(Cn2nc(C)c(NC(=O)c3cc(C(N)=O)nc4ccccc34)c2C)n1 [Example 1508],6.97
6,CNC(=O)c1nc(Cn2nc(C)c(NC(=O)c3cc(C(N)=O)nc4ccccc34)c2C)no1 [Example 1509],7.79
7,CCCS(=O)(=O)N1CCC(Cn2nc(C)c(NC(=O)c3cc(C(N)=O)nc4ccccc34)c2C)CC1 [Example 1510],7.70
8,COCCCS(=O)(=O)N1CCC(Cn2nc(C)c(NC(=O)c3cc(C(N)=O)nc4ccccc34)c2C)CC1 [Example 1513],7.22
9,Cc1nn(CC2CCN(S(=O)(=O)c3cccnc3)CC2)c(C)c1NC(=O)c1cc(C(N)=O)nc2ccccc12 [Example 1514],6.31
10,Cc1nonc1Cn1nc(C)c(NC(=O)c2cc(C(N)=O)nc3ccccc23)c1C [Example 1515],6.50
11,Cc1nn(CC2CCN(S(=O)(=O)C3CC3)CC2)c(C)c1NC(=O)c1cc(C(N)=O)nc2ccccc12 [Example 1516],7.58
12,Cc1nn(CC2CCN(S(=O)(=O)C(C)C)CC2)c(C)c1NC(=O)c1cc(C(N)=O)nc2ccccc12 [Example 1517],7.01
13,Cc1nn(CC2CCN(S(=O)(=O)C3CCCC3)CC2)c(C)c1NC(=O)c1cc(C(N)=O)nc2ccccc12 [Example 1518],7.16
14,Cc1nn(CC2CCN(S(=O)(=O)c3ccccc3)CC2)c(C)c1NC(=O)c1cc(C(N)=O)nc2ccccc12 [Example 1519],6.19
15,Cc1nonc1Cn1nc(C)c(NC(=O)c2cc(C(F)(F)F)nc3ccc(Br)cc23)c1C [Example 1520],6.13
16,Cc1nn(Cc2noc(C(=O)N(C)C)n2)c(C)c1NC(=O)c1cc(C(N)=O)nc2ccccc12 [Example 1521],5.78
17,Cc1nn(Cc2nccn2C)c(C)c1NC(=O)c1cc(C(N)=O)nc2ccccc12 [Example 1523],5.38
18,COc1cc(C(=O)Nc2c(C)nn(CC3CNC(=O)O3)c2C)c2ccccc2n1 (stereo not drawn) [Example 1525],5.32
19,COc1cc(C(=O)Nc2c(C)nn(Cc3cn4ccccc4n3)c2C)c2ccccc2n1 [Example 1527],6.64
20,Cc1nn(Cc2cn3ccccc3n2)c(C)c1NC(=O)c1cc(C(F)(F)F)nc2ccc(Br)cc12 [Example 1528],7.23

row,SMILES,pIC50
1,Cc1c(NC(=O)c2cc(C(N)=O)nc3cc(F)ccc23)c(C(F)(F)F)nn1Cc1ncco1 [Example 1529],6.40
2,COc1cc(C(=O)Nc2c(C)nn(Cc3csc(N4CCOCC4)n3)c2C)c2ccccc2n1 [Example 1530],6.05
3,CCc1cc(Cn2nc(C)c(NC(=O)c3cc(C(N)=O)nc4ccccc34)c2C)on1 [Example 1531],7.42
4,CCc1cc(Cn2nc(C)c(NC(=O)c3cc(C(N)=O)nc4cc(F)ccc34)c2C)on1 [Example 1532],7.79
5,CCS(=O)(=O)N1CCC(Cn2nc(C)c(NC(=O)c3cc(C(N)=O)nc4cc(F)ccc34)c2C)CC1 [Example 1534],7.71
6,CCc1noc(Cn2nc(C(F)(F)F)c(NC(=O)c3cc(C(N)=O)nc4ccccc34)c2C)n1 [Example 1536],7.10
7,Cc1cc(Cn2nc(C(F)(F)F)c(NC(=O)c3cc(C(N)=O)nc4ccccc34)c2C)no1 [Example 1538],7.14
8,Cc1c(NC(=O)c2cc(C(N)=O)nc3ccccc23)c(C(F)(F)F)nn1Cc1ncco1 [Example 1540],6.56
9,Cc1cc(Cn2nc(C(F)(F)F)c(NC(=O)c3cc(C(N)=O)nc4ccccc34)c2C)on1 [Example 1543],6.95
10,CCS(=O)(=O)N1CCC(Cn2nc(C(F)(F)F)c(NC(=O)c3cc(C(N)=O)nc4cc(F)ccc34)c2C)CC1 [Example 1545],7.37
11,CCc1nc(Cn2nc(C(F)(F)F)c(NC(=O)c3cc(C(N)=O)nc4cc(F)ccc34)c2C)no1 [Example 1548],7.58
12,Cc1c(NC(=O)c2cc(C(N)=O)nc3cc(F)ccc23)c(C(F)(F)F)nn1Cc1cc(C2CC2)on1 [Example 1550],7.46
13,CCc1cc(Cn2nc(C(F)(F)F)c(NC(=O)c3cc(C(N)=O)nc4cc(F)ccc34)c2C)on1 [Example 1556],7.38
14,Cc1cc(Cn2nc(C)c(NC(=O)c3cc(C(N)=O)nc4ccccc34)c2C)on1 [Example 1560],7.40
15,Cc1cc(Cn2nc(C)c(NC(=O)c3cc(C(N)=O)nc4cc(F)ccc34)c2C)on1 [Example 1561],7.98
16,Cc1nn(Cc2cc(C(C)C)no2)c(C)c1NC(=O)c1cc(C(N)=O)nc2ccccc12 [Example 1562],7.25
17,Cc1nn(Cc2cc(C(C)C)no2)c(C)c1NC(=O)c1cc(C(N)=O)nc2cc(F)ccc12 [Example 1563],7.45
18,Cc1c(NC(=O)c2cc(C(=O)N3CCOCC3)nc3ccc(F)cc23)c(C(F)(F)F)nn1Cc1ccc(C#N)cc1 [Example 1564],6.95
19,Cc1nn(Cc2cc(C#N)no2)c(C)c1NC(=O)c1cc(C(N)=O)nc2cc(F)ccc12 [Example 1566],7.85
20,Cc1nn(Cc2ccn(C)n2)c(C)c1NC(=O)c1cc(C(N)=O)nc2ccccc12 [Example 1569],7.17

# Further compounds by rising pIC50, results first:
row,pIC50,SMILES
1,5.69,Cc1nn(Cc2nccn2C)c(C)c1NC(=O)c1cc(C(F)(F)F)nc2ccc(Br)cc12 [Example 1524]
2,6.22,Cc1nn(Cc2noc(C(=O)N(C)C)n2)c(C)c1NC(=O)c1cc(C(F)(F)F)nc2ccc(Br)cc12 [Example 1522]
3,6.25,COc1cc(C(=O)Nc2c(C)nn(Cc3ccn(C)n3)c2C)c2ccccc2n1 [Example 1526]
4,6.71,Cc1c(NC(=O)c2cc(C(N)=O)nc3ccccc23)c(C(F)(F)F)nn1Cc1cc(C(C)C)no1 [Example 1552]
5,6.73,CCc1noc(Cn2nc(C(F)(F)F)c(NC(=O)c3cc(C(N)=O)nc4cc(F)ccc34)c2C)n1 [Example 1537]
6,6.77,CCS(=O)(=O)N1CCC(Cn2nc(C)c(NC(=O)c3cc(C(F)(F)F)nc4ccc(Br)cc34)c2C)CC1 [Example 1533]
7,6.80,Cc1c(NC(=O)c2cc(C(N)=O)nc3cc(F)ccc23)c(C(F)(F)F)nn1Cc1cc(C(C)C)no1 [Example 1553]
8,6.94,Cc1c(NC(=O)c2cc(C(N)=O)nc3cc(F)c(Cl)cc23)c(C(F)(F)F)nn1Cc1cc(C(C)C)no1 [Example 1554]
9,6.98,Cc1nn(CC2CCN(S(=O)(=O)CCCC#N)CC2)c(C)c1NC(=O)c1cc(C(N)=O)nc2ccccc12 [Example 1512]
10,7.03,Cc1cc(Cn2nc(C)c(NC(=O)c3cc(C(N)=O)nc4ccccc34)c2C)no1 [Example 1503]
11,7.07,Cc1cc(Cn2nc(C(F)(F)F)c(NC(=O)c3cc(C(N)=O)nc4cc(F)ccc34)c2C)on1 [Example 1542]
12,7.07,Cc1nn(Cc2cnn(C)c2C)c(C)c1NC(=O)c1cc(C(N)=O)nc2ccccc12 [Example 1567]
13,7.14,CNC(=O)c1nc(Cn2nc(C(F)(F)F)c(NC(=O)c3cc(C(N)=O)nc4cc(F)ccc34)c2C)no1 [Example 1559]
14,7.27,CNC(=O)c1nc(Cn2nc(C(F)(F)F)c(NC(=O)c3cc(C(N)=O)nc4ccccc34)c2C)no1 [Example 1557]
15,7.33,Cc1cc(Cn2nc(C(F)(F)F)c(NC(=O)c3cc(C(N)=O)nc4cc(F)ccc34)c2C)no1 [Example 1539]
16,7.47,CCS(=O)(=O)N1CCC(Cn2nc(C(F)(F)F)c(NC(=O)c3cc(C(N)=O)nc4ccccc34)c2C)CC1 [Example 1546]
17,7.50,CCCCS(=O)(=O)N1CCC(Cn2nc(C)c(NC(=O)c3cc(C(N)=O)nc4ccccc34)c2C)CC1 [Example 1511]
18,7.56,Cc1nc(Cn2nc(C)c(NC(=O)c3cc(C(N)=O)nc4ccccc34)c2C)cs1 [Example 1568]
19,7.62,Cc1c(NC(=O)c2cc(C(N)=O)nc3cc(F)c(Cl)cc23)c(C(F)(F)F)nn1Cc1ncco1 [Example 1547]
20,7.65,CCc1nc(Cn2nc(C(F)(F)F)c(NC(=O)c3cc(C(N)=O)nc4ccccc34)c2C)no1 [Example 1535]
21,7.68,Cc1c(NC(=O)c2cc(C(N)=O)nc3cccc(O)c23)c(C(F)(F)F)nn1Cc1ccc(C#N)cc1 [Example 1565]
22,7.74,CCc1cc(Cn2nc(C(F)(F)F)c(NC(=O)c3cc(C(N)=O)nc4ccccc34)c2C)on1 [Example 1555]
23,7.80,CCc1noc(Cn2nc(C(F)(F)F)c(NC(=O)c3cc(C(N)=O)nc4cc(F)c(Cl)cc34)c2C)n1 [Example 1544]
24,7.81,Cc1cc(Cn2nc(C)c(NC(=O)c3cc(C(N)=O)nc4cc(F)ccc34)c2C)no1 [Example 1541]
25,7.87,Cc1c(NC(=O)c2cc(C(N)=O)nc3ccccc23)c(C(F)(F)F)nn1Cc1cc(C2CC2)on1 [Example 1549]
26,7.95,Cc1c(NC(=O)c2cc(C(N)=O)nc3cc(F)c(Cl)cc23)c(C(F)(F)F)nn1Cc1cc(C2CC2)on1 [Example 1551]

# — patent publication US20170037028A1 (BAYER PHARMA AKTIENGESELLSCHAFT, priority 2013, published 2017)
